The values below are quoted from earlier work in patent US20250064843A1, “METHOD AND MEDICAMENT FOR TREATING AMYOTROPHIC LATERAL SCLEROSIS” (4B TECHNOLOGIES (BEIJING) CO., LIMITED, priority 2021, published 2025).

SMILES strings stand for the structures. Converted amounts (≈) assume the structure as drawn.

One series deals with IGF1R (Homo sapiens, UniProt P08069). The conditions noted are these: for IGF1R.
Another series concerns proliferation. The conditions noted are these: for proliferation.
The next series concerns mouse leukemia cells. The conditions noted are these: on mouse leukemia cells.
Another series deals with ALS-mimic mouse model. The conditions noted are these: NR3C1 antagonist.
The target of the next series is T1, KCNC1 (Homo sapiens, UniProt P48547).
T1 sequence (P48547 1-511): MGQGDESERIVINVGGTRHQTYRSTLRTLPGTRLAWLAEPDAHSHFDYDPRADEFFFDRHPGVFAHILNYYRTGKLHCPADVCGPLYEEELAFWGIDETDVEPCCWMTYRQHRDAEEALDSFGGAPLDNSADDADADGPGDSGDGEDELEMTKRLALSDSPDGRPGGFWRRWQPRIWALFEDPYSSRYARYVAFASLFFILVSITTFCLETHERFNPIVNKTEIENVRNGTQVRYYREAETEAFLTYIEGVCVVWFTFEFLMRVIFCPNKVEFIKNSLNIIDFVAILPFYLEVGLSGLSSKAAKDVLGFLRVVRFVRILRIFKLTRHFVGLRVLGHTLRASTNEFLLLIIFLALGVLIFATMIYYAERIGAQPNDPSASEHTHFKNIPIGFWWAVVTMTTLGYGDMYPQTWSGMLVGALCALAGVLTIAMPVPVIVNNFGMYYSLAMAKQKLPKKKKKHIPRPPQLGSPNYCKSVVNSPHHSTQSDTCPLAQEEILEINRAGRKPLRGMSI
The conditions noted are these: for KCNC1.

The test system of another series is leukemia cells. The conditions noted are these: on leukemia cells at 24 h.
For the next series, the system named is human neutrophils. The conditions noted are these: in human neutrophils.
In another series the target is T2, NR3C1 (Homo sapiens, UniProt P04150).
T2 sequence (P04150 1-777): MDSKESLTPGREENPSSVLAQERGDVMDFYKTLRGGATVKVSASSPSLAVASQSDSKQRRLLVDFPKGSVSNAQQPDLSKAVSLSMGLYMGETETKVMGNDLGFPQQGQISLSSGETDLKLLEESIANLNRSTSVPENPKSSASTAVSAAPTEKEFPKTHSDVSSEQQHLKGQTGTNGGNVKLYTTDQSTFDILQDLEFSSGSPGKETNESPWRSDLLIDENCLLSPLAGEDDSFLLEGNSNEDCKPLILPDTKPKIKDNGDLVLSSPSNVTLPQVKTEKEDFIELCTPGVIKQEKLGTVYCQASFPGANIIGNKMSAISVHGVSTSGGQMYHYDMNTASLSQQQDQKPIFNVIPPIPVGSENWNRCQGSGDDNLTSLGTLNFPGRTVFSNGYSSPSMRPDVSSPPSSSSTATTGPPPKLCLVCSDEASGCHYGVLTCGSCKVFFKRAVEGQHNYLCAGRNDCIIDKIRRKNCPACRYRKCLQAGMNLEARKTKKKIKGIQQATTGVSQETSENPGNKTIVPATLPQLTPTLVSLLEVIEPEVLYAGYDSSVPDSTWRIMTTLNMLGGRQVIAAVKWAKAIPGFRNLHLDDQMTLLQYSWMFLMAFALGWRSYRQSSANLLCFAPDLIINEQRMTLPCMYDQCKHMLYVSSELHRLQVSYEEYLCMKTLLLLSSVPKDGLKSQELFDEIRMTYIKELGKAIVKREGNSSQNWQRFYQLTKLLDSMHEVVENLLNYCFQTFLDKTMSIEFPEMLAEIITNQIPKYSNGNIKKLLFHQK
The conditions noted are these: for NR3C1; retrieved from Selleckchem.com.

The subject of another series is ALS patients. The conditions noted are these: NR3C1 agonists.

Chain of IGF1R (P08069 31-1367): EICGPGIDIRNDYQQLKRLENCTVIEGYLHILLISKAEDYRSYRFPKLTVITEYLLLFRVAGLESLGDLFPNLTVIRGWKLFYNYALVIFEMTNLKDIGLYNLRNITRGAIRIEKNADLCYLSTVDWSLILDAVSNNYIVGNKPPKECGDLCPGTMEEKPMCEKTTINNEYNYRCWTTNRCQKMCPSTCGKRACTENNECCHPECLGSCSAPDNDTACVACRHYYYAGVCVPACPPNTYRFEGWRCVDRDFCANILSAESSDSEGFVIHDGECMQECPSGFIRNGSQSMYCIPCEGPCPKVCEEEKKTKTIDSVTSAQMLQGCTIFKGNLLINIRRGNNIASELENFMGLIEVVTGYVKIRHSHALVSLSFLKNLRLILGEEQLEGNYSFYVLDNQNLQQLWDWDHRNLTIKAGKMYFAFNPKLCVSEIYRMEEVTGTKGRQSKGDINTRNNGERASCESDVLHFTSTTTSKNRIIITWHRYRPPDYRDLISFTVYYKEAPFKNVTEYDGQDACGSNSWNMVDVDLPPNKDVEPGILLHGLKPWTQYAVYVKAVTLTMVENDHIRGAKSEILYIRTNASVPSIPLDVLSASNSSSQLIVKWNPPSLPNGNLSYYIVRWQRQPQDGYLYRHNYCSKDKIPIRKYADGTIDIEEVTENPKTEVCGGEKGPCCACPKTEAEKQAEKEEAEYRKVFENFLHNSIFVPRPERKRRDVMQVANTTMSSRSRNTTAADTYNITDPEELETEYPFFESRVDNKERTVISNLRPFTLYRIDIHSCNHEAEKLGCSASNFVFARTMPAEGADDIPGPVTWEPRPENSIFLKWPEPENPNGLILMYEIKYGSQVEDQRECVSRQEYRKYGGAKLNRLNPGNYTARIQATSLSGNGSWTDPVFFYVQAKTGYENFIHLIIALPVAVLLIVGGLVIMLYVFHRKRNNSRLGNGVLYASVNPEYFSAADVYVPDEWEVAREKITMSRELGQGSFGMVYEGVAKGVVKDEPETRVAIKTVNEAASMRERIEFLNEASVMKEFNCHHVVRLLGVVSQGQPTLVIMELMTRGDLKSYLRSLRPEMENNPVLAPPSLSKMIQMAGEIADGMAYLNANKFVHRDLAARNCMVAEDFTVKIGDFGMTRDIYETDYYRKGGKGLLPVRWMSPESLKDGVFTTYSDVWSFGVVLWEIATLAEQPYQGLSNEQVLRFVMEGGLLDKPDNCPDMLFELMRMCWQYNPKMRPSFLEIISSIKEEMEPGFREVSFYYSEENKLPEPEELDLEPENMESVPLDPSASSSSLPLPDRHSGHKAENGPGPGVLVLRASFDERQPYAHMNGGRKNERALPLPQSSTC

Turning to `COc1cc([C@@H]2c3cc4c(cc3[C@H](O)[C@H]3COC(=O)[C@@H]23)OCO4)cc(OC)c1OC` [AXL-1717, picropodophyllin], the IC50 at IGF1R is 1 nM.
As to `COc1cc(C)c(/C=C/C(C)=C/C=C/C(C)=C/C(=O)O)c(C)c1C` [Acitretin, (2E,4E,6E,8E)-9-(4-methoxy-2,3,6-trimethylphenyl)-3,7-dimethylnona-2,4,6,8-tetraenoic acid], the IC50 with proliferation is 6600 nM.
Consider `Nc1ncn([C@@H]2O[C@H](CO)[C@@H](O)[C@H]2O)c(=O)n1` [Azacitidine, 5-azacytidine], for which the IC50 in the series with mouse leukemia cells is 0.019 µg/mL (≈ 0.0778 µM).
On to `O=C(c1ccccn1)[C@]12Cc3cnn(-c4ccc(F)cc4)c3C=C1CCN(S(=O)(=O)c1ccc(C(F)(F)F)cc1)C2` [CORT113176], for which the “effect on pro-inflammatory factors” value in the series on ALS-mimic mouse model is “reducing the expression and origin of pro-inflammatory factors”.
Regarding `Nc1ccncc1` [Dalfampridine, 4-aminopyridine], on KCNC1, the IC50 is 29000 nM.
Consider `Nc1ncn([C@H]2C[C@H](O)[C@@H](CO)O2)c(=O)n1` [Decitabine, 5-aza-2′-deoxycytidine], for which the IC50 in the series with leukemia cells was 100 nM.
For `CC(CCc1ccccc1)NCC(O)c1ccc(O)c(C(N)=O)c1` (stereo not drawn) [Labetalol], in the series on human neutrophils, the IC50 is given as 13.2 mg/L in.
On to `CC#C[C@]1(O)CCC2C3CCC4=CC(=O)CCC4=C3[C@@H](c3ccc4c(c3)OCO4)C[C@@]21C` (stereo partly drawn) [ORG-34517], for which, on NR3C1, the IC50 was 17.9 nM.
As for `C[C@]12C=CC(=O)C=C1CC[C@@H]1[C@@H]2C(=O)C[C@@]2(C)[C@H]1CC[C@]2(O)C(=O)CO` [prednisone], in the series on ALS patients, the “response to immunosuppression therapy” value is “none of the patients reached the pre-defined responder criteria”.
